Patent US20030206898A1, “Use of anti-TNFalpha antibodies and another drug” (priority 2002, published 2003)
Several values for one entry are separate records, joined by “and”; a condition that tells them apart may be missing. Equal entries are not always repeated. Entries after “also recorded” stand apart in the source; their conditions may differ.

Legend:
[1] = system: patients with rheumatoid arthritis (RA); assay: Same RA study: safety / adverse events; type: in vivo, human
Experimental: A study was designed and conducted to investigate the safety and efficacy of D2E7 40 mg administered every other week to patients with RA whose disease was not adequately treated with their current anti-rheumatic therapies (including accepted DMARDs, NSAIDs, or steroids); and was a multicenter, randomized, double-blind, placebo-controlled study in which D2E7 was subcutaneously (sc) administered every other week for up to 24 weeks at a dosage of 40 mg to patients with rheumatoid arthritis (RA) whose disease was not adequately treated with their current anti-rheumatic therapies. Anti-rheumatic therapies permitted for use during the study included accepted disease-modifying anti-rheumatic drugs (DMARDs), non-steroidal anti-inflammatory drugs (NSAIDs), or steroids. Despite using anti-rheumatic therapies, patients must have had active disease documented at both the screening and baseline visits. Doses of DMARDs, as well as concomitant prednisone (<10 mg daily) and NSAIDs, were required to be stable for at least 28 days prior to screening. […]
Adverse events were summarized by frequency, percentage, as well as the rate per 100 patient-years. […] All other efficacy variables were summarized descriptively (statistical characteristics, frequencies, percentages, confidence intervals) and analyzed by exploratory two-sided statistical tests. […]

[2] = system: patients with rheumatoid arthritis (RA); assay: Multicenter, randomized, double-blind, placebo-controlled study of D2E7 40 mg sc every other week added to current anti-rheumatic therapies: efficacy (ACR response); type: in vivo, human
Experimental: A study was designed and conducted to investigate the safety and efficacy of D2E7 40 mg administered every other week to patients with RA whose disease was not adequately treated with their current anti-rheumatic therapies (including accepted DMARDs, NSAIDs, or steroids); and was a multicenter, randomized, double-blind, placebo-controlled study in which D2E7 was subcutaneously (sc) administered every other week for up to 24 weeks at a dosage of 40 mg to patients with rheumatoid arthritis (RA) whose disease was not adequately treated with their current anti-rheumatic therapies. Anti-rheumatic therapies permitted for use during the study included accepted disease-modifying anti-rheumatic drugs (DMARDs), non-steroidal anti-inflammatory drugs (NSAIDs), or steroids. Despite using anti-rheumatic therapies, patients must have had active disease documented at both the screening and baseline visits. Doses of DMARDs, as well as concomitant prednisone (<10 mg daily) and NSAIDs, were required to be stable for at least 28 days prior to screening. Additionally, patients using azathioprine and/or cyclosporine discontinued these therapies and underwent a 28-day washout period before screening. At the baseline visit, patients were randomized to D2E7 or placebo and this signified the start of the 24-week placebo-controlled period. Patients were examined at Weeks 2, 4, 8, 12, 16, 20 and 24 of the study.
Patients were inadequately treated with their current anti-rheumatic therapies and had active RA, defined as ≧6 swollen joints and ≧9 tender joints. Additionally, patients using glucocorticoids were allowed into the study if the dose was equivalent to <10 mg/day prednisone and had remained unchanged for at least 28 days.
D2E7 was supplied in 2-mL glass vials (the concentration of D2E7 in each vial was 25 mg/mL (ie, 40 mg/1.6 mL)), each containing 40 mg D2E7/1.6 mL solution for injection. D2E7 was manufactured and supplied by Ebewe Arzneimittel GmbH, in Unterach, Austria. McKesson, HBOC Biosciences, in Rockville, Md., USA, packaged, labeled, stored and distributed D2E7 to the investigators at each site for this study. D2E7 was self-administered as a single sc injection of 40 mg every other week for a period of 24 weeks. The concentration of study drug was 25 mg/mL. Placebo/1.6 mL (citrate-phosphate buffer solution without D2E7) was self-administered as a single sc injection every other week for a period of 24 weeks.
Patients continued to receive their pre-study dose of anti-rheumatic therapies. Anti-rheumatic therapies permitted for use during the study included DMARDs (hydroxychloroquine, leflunomide, methotrexate, parenteral gold, oral gold and sulfasalazine, or any combination of these or other DMARDs), NSAIDs and steroids. Doses of these DMARDs as well as concomitant prednisone (<10 mg daily) and NSAIDs must have been stable for at least 28 days prior to screening.
Efficacy endpoints included: ACR20 response at Week 24; ACR50 and ACR70 at Week 24; AUC (area under the curve) of ACR20, ACR50 and ACR70 from baseline to Week 24; time to first response for ACR20, ACR50 and ACR70; numeric ACR (ACR—N); change from baseline to Week 24 in components of the ACR response criteria (tender joint count [TJC], swollen joint count [SJC], patient assessment of pain, patient and physician global assessments of disease activity, HAQ and C-reactive protein [CRP]); change from baseline to Week 24 in physical function as measured by SF-36, health utilities index (HUI), functional assessment of chronic illness therapy (FACIT) fatigue scale; Euro-QoL questionnaire; multidimensional assessment of fatigue (MAF) scale; subject summary survey; incidence and time to dose increases in background DMARD and/or steroid therapy; institution of new DMARD therapy for lack of clinical response; rheumatoid factor (RF); and morning stiffness.
Adverse events were summarized by frequency, percentage, as well as the rate per 100 patient-years. […]

[3] = Week 2, full analysis set, excluding Site #7
[4] = Week 4, full analysis set, excluding Site #7
[5] = Week 8, full analysis set, excluding Site #7
[6] = Week 12, full analysis set, excluding Site #7
[7] = Week 16, full analysis set, excluding Site #7
[8] = Week 20, full analysis set, excluding Site #7
[9] = Week 24, full analysis set, excluding Site #7
[10] = Week 24, subgroup Three or more DMARDs
[11] = Week 24, subgroup concomitant Antimalarial
[12] = Week 24, subgroup concomitant Leflunomide
[13] = Week 24, subgroup concomitant Methotrexate
[14] = Week 24, subgroup concomitant Sulfasalazine
[15] = through Week 24, full analysis set, excluding Site #7

D2E7: recombinant, neutralizing human anti-hTNFα antibody; VL region SEQ ID NO: 1, VH region SEQ ID NO: 2
Tolerability when added to existing DMARD therapies ([1]; 40 mg sc every other week, up to 24 weeks): generally well-tolerated | Safety alone or in combination with other DMARDs ([1]; dose of 40 mg): safe | ACR50 response, patients responding ([2]; LOCF Week 24, N = 315): 95 (30.2) N (%) | ACR70 response, patients responding ([2]; LOCF Week 24, N = 315): 48 (15.2) N (%) | ACR-N, Mean ± SD ([2]; LOCF Week 24, N = 315): 21.2 ± 55.3 | Time to response ACR20: patients responding for the first time [2, 3]: 106 (33.7) N (%) | Time to response ACR50: patients responding for the first time [2, 3]: 31 (9.8) N (%) | Time to response ACR70: patients responding for the first time [2, 3]: 9 (2.9) N (%) | Time to response ACR20: patients responding for the first time [2, 4]: 51 (16.2) N (%) | Time to response ACR50: patients responding for the first time [2, 4]: 31 (9.8) N (%) | Time to response ACR70: patients responding for the first time [2, 4]: 12 (3.8) N (%) | Time to response ACR20: patients responding for the first time [2, 5]: 52 (16.5) N (%) | Time to response ACR50: patients responding for the first time [2, 5]: 34 (10.8) N (%) | Time to response ACR70: patients responding for the first time [2, 5]: 12 (3.8) N (%) | Time to response ACR20: patients responding for the first time [2, 6]: 17 (5.4) N (%) | Time to response ACR50: patients responding for the first time [2, 6]: 20 (6.3) N (%) | Time to response ACR70: patients responding for the first time [2, 6]: 18 (5.7) N (%) | Time to response ACR20: patients responding for the first time [2, 7]: 13 (4.1) N (%) | Time to response ACR50: patients responding for the first time [2, 7]: 20 (6.3) N (%) | Time to response ACR70: patients responding for the first time [2, 7]: 18 (5.7) N (%) | Time to response ACR20: patients responding for the first time [2, 8]: 12 (3.8) N (%) | Time to response ACR50: patients responding for the first time [2, 8]: 9 (2.9) N (%) | Time to response ACR70: patients responding for the first time [2, 8]: 7 (2.2) N (%) | ACR20 response, patients responding ([2]; Week 24, 40 mg sc every other week, N = 315): 167 (53.0) N (%) | ACR20 response (primary efficacy endpoint) ([2]; Week 24, D2E7 added to current anti-rheumatic therapies): 53.0% | ACR50 response, patients responding ([2]; Week 24, N = 315): 92 (29.2) N (%) and 92 (29.2)^a N (%) | ACR70 response, patients responding ([2]; Week 24, N = 315): 47 (14.9) N (%) and 47 (14.9)^a N (%) | ACR-N, Mean ± SD ([2]; Week 24, N = 315): 20.3 ± 55.2 | Time to response ACR20: patients responding for the first time [2, 9]: 3 (1.0) N (%) | Time to response ACR50: patients responding for the first time [2, 9]: 10 (3.2) N (%) | Time to response ACR70: patients responding for the first time [2, 9]: 8 (2.5) N (%) | ACR20 % Response ([2]; Week 24, subgroup No DMARD): 50.0% | ACR50 response ([2]; Week 24, subgroup No DMARD): 27.8% | ACR70 response ([2]; Week 24, subgroup No DMARD): 18.5% | ACR-N, Mean ± SD ([2]; Week 24, subgroup No DMARD): 12.8 ± 68.2 | ACR20 % Response ([2]; Week 24, subgroup One DMARD): 55.4% | ACR50 response ([2]; Week 24, subgroup One DMARD): 31.0% | ACR70 response ([2]; Week 24, subgroup One DMARD): 16.3% | ACR-N, Mean ± SD ([2]; Week 24, subgroup One DMARD): 22.8 ± 56.0 | ACR20 % Response ([2]; Week 24, subgroup Other DMARDs): 52.0% | ACR50 response ([2]; Week 24, subgroup Other DMARDs): 24.0% | ACR70 response ([2]; Week 24, subgroup Other DMARDs): 16.0% | ACR-N, Mean ± SD ([2]; Week 24, subgroup Other DMARDs): 25.3 ± 33.9 | ACR20 % Response [2, 10]: 45.5% | ACR50 response [2, 10]: 18.2% | ACR70 response [2, 10]: 9.1% | ACR-N, Mean ± SD [2, 10]: 20.1 ± 37.2 | ACR20 % Response ([2]; Week 24, subgroup Two DMARDs): 50.0% | ACR50 response ([2]; Week 24, subgroup Two DMARDs): 27.3% | ACR70 response ([2]; Week 24, subgroup Two DMARDs): 9.1% | ACR-N, Mean ± SD ([2]; Week 24, subgroup Two DMARDs): 19.5 ± 42.3 | ACR20 % Response [2, 11]: 50.7% | ACR50 response [2, 11]: 29.3% | ACR70 response [2, 11]: 12.0% | ACR-N, Mean ± SD [2, 11]: 20.0 ± 45.5 | ACR20 % Response [2, 12]: 33.3% | ACR50 response [2, 12]: 14.3% | ACR70 response [2, 12]: 0.0% | ACR-N, Mean ± SD [2, 12]: −0.5 ± 77.5 | ACR20 % Response [2, 13]: 56.7% | ACR50 response [2, 13]: 30.9% | ACR70 response [2, 13]: 15.2% | ACR-N, Mean ± SD [2, 13]: 26.5 ± 42.3 | ACR20 % Response [2, 14]: 58.6% | ACR50 response [2, 14]: 34.5% | ACR70 response [2, 14]: 17.2% | ACR-N, Mean ± SD [2, 14]: 21.4 ± 53.9 | Subgroup analyses of ACR20, ACR50, ACR70, ACR-N and their AUC ([2]; concomitant methotrexate, antimalarials, sulfasalazine, other DMARDs, or 0, 1, 2, ≧3 DMARDs, vs placebo): greater improvement; also recorded: higher response compared to placebo | Improvement in RA in patients inadequately treated with existing DMARD therapies ([2]; in vivo): significant improvement | Time to response ACR20: Non-responder [2, 15]: 61 (19.4) N (%) | Time to response ACR50: Non-responder [2, 15]: 160 (50.8) N (%) | Time to response ACR70: Non-responder [2, 15]: 231 (73.3) N (%) | Time to response and AUC for ACR20, ACR50, ACR70; AUC for ACR-N; Euro-QoL, RF, MAF scale ([2]; vs placebo): improvement in therapeutic response over placebo
